Measured values reported in patent US10842874B2, “Sensitization of bacterial cells to quinolone antibiotics” (Massachusetts Institute of Technology, priority 2017, dated 2020).
In brackets after ≈: the same amount, converted by molar mass.

Experiments:
[1] = tested on: E. coli K12 strain MG1655 stationary phase cells; assay: Potentiation assays on stationary phase cultures (metabolites / oxygen plus antibiotic, CFU/mL); format: cell-based, Escherichia coli; conditions: for killing of stationary phase E. coli with glucose-fumarate supplementation: different antibiotic concentrations
M. smegmatis [2] = conditions: exponentially growing cultures (1% maximal density)
S. aureus = conditions: exponentially growing cultures (1% maximal density)
[3] = tested on: E. coli K12 strain MG1655; format: cell-based, Escherichia coli
Protocol: At each time point, cells were also serially diluted in PBS and plated on LB agar plates to determine the CFU/mL at the time of treatment. Time points were taken until cells reached maximum carrying capacity. After 24 hours of treatment, 100 μl of cells from each tube was spun down and re-suspended in PBS on a 96-well plate. Cells were then serially diluted and plated on LB agar plates. The CFU/mL at treatment was normalized by the CFU/mL of stationary phase cells (% max CFU/ml).
An overnight culture of E. coli was diluted 1/10, 1/100, 1/1000, and 1/10000 in non-baffled flasks. […] Cells were spun down and re-suspended in PBS, diluted and plated on LB agar plates to determine CFU/ml.

M. smegmatis [4] = assay: Minimum inhibitory concentration (MIC); format: cell-based, Mycobacterium smegmatis; conditions: Mycolicibacterium smegmatis
[5] = tested on: M. smegmatis strain mc^2 155; assay: Potentiation assay, glucose-fumarate sensitization of stationary phase culture; format: cell-based, Mycobacterium smegmatis; conditions: aerated stationary phase; 0.4% fumarate and/or 0.4% glucose
[6] = MOPS rich media, shaking, 1 μg/mL ciprofloxacin

O=O [oxygen]
susceptibility of stationary phase E. coli to ciprofloxacin with supplementation ([1]; static stationary phase culture, 0.4% glucose, bubbled air, oxygen tension 5-6%, 1 μg/mL ciprofloxacin): minimal effect

O=C(O)c1cn(C2CC2)c2cc(N3CCNCC3)c(F)cc2c1=O [ciprofloxacin]
number of viable cells at higher doses (M. smegmatis [2]): below the limit of detection
number of viable cells at higher doses (S. aureus): below the limit of detection
killing at 1 μg/mL (100xMIC) ([3]; 1 μg/mL ciprofloxacin, low and intermediate cell density): maximal killing at low cell density
ability to kill the high-density cell population (DDP) ([3]; dose 1000x the MIC, treatment time 24 hours): inability of ciprofloxacin to kill a fraction of the cell population
reduction in persister cells of ΔrelAspoT mutant compared to wildtype ([3]; stationary phase, 1 μg/mL ciprofloxacin, ppGpp0 strain): 5.5 fold
susceptibility of quinolone hypersensitive mutant recB ([3]; ΔrecB mutant, stationary phase): hypersensitive in stationary phase
MIC (M. smegmatis [4]): 0.5 µg/mL (≈ 1.51 µM)

C[S+](C)[O-] [DMSO]
sensitization of stationary phase cultures to ciprofloxacin by the supplement alone [1, 6]: none of these electron acceptors alone was able to sensitize cells

O=[N+]([O-])[O-].[K+] [nitrate, potassium nitrate]
sensitization of stationary phase cultures to ciprofloxacin by the supplement alone [1, 6]: none of these electron acceptors alone was able to sensitize cells

O=C(O)/C=C/C(=O)O [fumarate]
sensitization of stationary phase cultures to ciprofloxacin [5]: weakly
sensitization of stationary phase cultures to ciprofloxacin by the supplement alone [1, 6]: none of these electron acceptors alone was able to sensitize cells
sensitization of high-density cultures to ciprofloxacin by electron acceptor in combination with glucose ([1]; MOPS rich media, shaking, 1 μg/mL ciprofloxacin, with glucose): synergistically sensitized

gentamicin
killing of stationary phase E. coli with glucose-fumarate supplementation [1]: sensitized

CC1(C)S[C@@H]2[C@H](NC(=O)[C@H](N)c3ccccc3)C(=O)N2[C@H]1C(=O)O [ampicillin]
killing of stationary phase E. coli with glucose-fumarate supplementation [1]: did not kill stationary phase cells
